# Experimental data reported in publication PMC6443933, “Antagonizing Retinoic Acid-Related-Orphan Receptor Gamma Activity Blocks the T Helper 17/Interleukin-17 Pathway Leading to Attenuated Pro-inflammatory Human Keratinocyte and Skin Responses” (Frontiers in Immunology, 2019).
# * marks the point of attachment. Biotin = O=C1N[C@H]2[C@H](CS[C@H]2CCCCC(=O)*)N1; Ahx = NCCCCCC(=O)O
# T1: human RORγt ligand binding domain (264-518), His6-tagged (human, UniProt P51449-1 264-518)
# T1 construct: also called RORγt-LBD; His6-tagged RORγt-LBD; source: produced at Novartis
# T1 sequence (looked up): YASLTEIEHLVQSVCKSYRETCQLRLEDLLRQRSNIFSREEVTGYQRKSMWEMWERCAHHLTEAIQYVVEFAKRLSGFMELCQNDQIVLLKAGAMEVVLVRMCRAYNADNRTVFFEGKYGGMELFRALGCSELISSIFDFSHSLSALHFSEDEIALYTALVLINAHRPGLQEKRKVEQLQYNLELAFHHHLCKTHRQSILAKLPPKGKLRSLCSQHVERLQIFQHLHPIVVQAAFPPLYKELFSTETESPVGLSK
# Key:
# NHEKs = assay: IL-17A/TNFα spike-in in primary keratinocytes (NHEKs), qRT-PCR; format: cell-based, human; details: 0.75 μg/ml; similar to TNFα stimulation
# Method: The HaCaT keratinocyte cell line was purchased from AddexBio and was maintained in RPMI 1640 medium supplemented with Glutamax, Penicillin/Streptomycin (all from Gibco) and 10% FCS (PAA). Normal primary human epidermal keratinocytes (NHEKs) were purchased from Lonza and PromoCell, respectively. Cells were cultured in Keratinocyte basal growth medium (KBM; Lonza) containing KGM2 growth supplements including insulin, human epidermal growth factor, bovine pituitary extract, hydrocortisone, epinephrine, transferrin, and gentamicin/amphotericin B (Lonza). HaCaT cells were incubated in a 96-well-microtiter plate (2 × 10^4 cells/well) with Th17 cytokine-containing supernatants obtained from total CD4^+ T-cells that were polarized for 72 h in the presence of anti-CD3/CD28 antibodies and a Th17 polarization cocktail as described above. […] Cytokine concentrations in supernatants were determined from representative experiments and they contained approximately 150 pg/ml or 600 pg/ml of IL-17 in 10 μM or in 0.13 nM treated samples, respectively. […]
# Total RNA from human Th17 cells (6 × 10^5 cells), RORγt-RORE HUT78 cells (4 × 10^5 cells) and HaCaT cells (6 × 10^4 cells) was extracted using RNeasy kit including a DNAse I digestion step according to the manufacturer‘s protocol (Qiagen). […] Quantitative RT-PCR analysis was performed using a TaqManViiA7 (Applied Biosystems). […]
# HaCaT keratinocytes = assay: IL-17-driven HaCaT keratinocyte responses (Th17 supernatants or spiked cytokines), qRT-PCR; format: cell-based, human
# Method: The HaCaT keratinocyte cell line was purchased from AddexBio and was maintained in RPMI 1640 medium supplemented with Glutamax, Penicillin/Streptomycin (all from Gibco) and 10% FCS (PAA). Normal primary human epidermal keratinocytes (NHEKs) were purchased from Lonza and PromoCell, respectively. Cells were cultured in Keratinocyte basal growth medium (KBM; Lonza) containing KGM2 growth supplements including insulin, human epidermal growth factor, bovine pituitary extract, hydrocortisone, epinephrine, transferrin, and gentamicin/amphotericin B (Lonza). HaCaT cells were incubated in a 96-well-microtiter plate (2 × 10^4 cells/well) with Th17 cytokine-containing supernatants obtained from total CD4^+ T-cells that were polarized for 72 h in the presence of anti-CD3/CD28 antibodies and a Th17 polarization cocktail as described above. […] Cytokine concentrations in supernatants were determined from representative experiments and they contained approximately 150 pg/ml or 600 pg/ml of IL-17 in 10 μM or in 0.13 nM treated samples, respectively. The TNF-α concentration was similar in supernatants exposed to low or high Cpd A concentrations and was 4 ng/ml. To study the impact of the IL-17 cytokine, IL-17 in the supernatants and in the spike-in cocktails was neutralized by a 0.5 h pre-incubation with an IL-17-specific antibody [0.75 μg/ml; Secukinumab (Cosentyx®, Novartis)]. All cultures were incubated in triplicates and after a 24 h incubation period, HaCaT cells (6 × 10^4 cells/sample) and NHEKs (1 × 10^5 cells/sample) were harvested and further processed for qRT-PCR analysis.
# Total RNA from human Th17 cells (6 × 10^5 cells), RORγt-RORE HUT78 cells (4 × 10^5 cells) and HaCaT cells (6 × 10^4 cells) was extracted using RNeasy kit including a DNAse I digestion step according to the manufacturer‘s protocol (Qiagen). Frozen skin biopsies (8 mm punches) were resuspended in RLT buffer (Qiagen) containing 1% β-mercaptoethanol and homogenized using a Precellys-Cryolys device (Bertin Instruments) according to the manufacturer's instructions. cDNAs were prepared with the High Capacity cDNA Reverse Transcription Kit (Applied Biosystems). Quantitative RT-PCR analysis was performed using a TaqManViiA7 (Applied Biosystems). All runs were accompanied by the internal control gene human β-glucoronidase (Gus) (431088E). The samples were run in triplicate or in hexaplicate and normalized to Gus using the ΔΔCt method to provide arbitrary units representing relative expression levels. The following Taqman probes were used for RT-PCR (Thermo Scientific): RORC (Hs01076112_m1), IL17A (Hs00936345_m1), IL22 (Hs01574154_m1), IL26 (Hs00218189_m1), IL23R (Hs00332759_m1), CCR6 (Hs00218189_m1), NFKBIZ (Hs00355476_m), DEFB4A (Hs00823638_m1), IL36G (Hs00219742_m1), and CCL20 (Hs00355476_m1).
# [1] = system: HUT78 T-cells stably expressing full-length eGFP-RORγt; assay: IL-17A / IL-2 production by RORγt transduced HUT78 T-cell line; format: cell-based, human; details: PMA plus anti-CD3, 48 h, ELISA
# total human CD4+ T-cells = assay: Th17 polarization of total CD4+ T-cells, cytokine ELISA; format: cell-based; details: total CD4+ T-cells, Th17 polarization 72 h, ELISA; read-out: IC50, IL-17A secretion
# Method: Total, naive and memory CD4^+ T cells were isolated from Peripheral blood mononuclear cells (PBMCs) from healthy volunteers by density gradient centrifugation using Ficoll Paque (GE). Total, naive or memory CD4^+ T-cells were prepared by immunomagnetic separation using the respective CD4^+ T-cell enrichment kits resulting in untouched highly purified subsets (EasySep™, Stem Cell). Purity was assessed by flow cytometry and was between 95 and 98% for the total CD4^+ T-cells. The purity of naive (CD45RA^+CD45RO^−) and memory (CD45RA^−CD45RO^+) CD4^+T-cells ranged between 95 and 98%, respectively. For T-cell stimulation experiments, cells were treated as previously published ([44]). Briefly, T-cells were stimulated with plate-bound monoclonal antibodies against CD3 (1 μg/ml, clone OKT-3, BioXcell) and CD28 (1 μg/ml, clone CD28.2, BioLegend). For Th17 polarization assays, IL-6 (20 ng/ml), TGF-β1 (5 ng/ml), IL-1β (10 ng/ml), and IL-23 (10 ng/ml) were added. For Th1 polarization assays, IL-12 (10 ng/ml) and anti-IL-4 antibody (5 μg/ml), for Th2 polarizations, IL-4 (10 ng/ml) and anti-IFN-γ antibody (5 μg/ml) were added. For Th0 polarization assays, cells were only stimulated with CD3 and CD28 antibodies. Supernatants were collected after 3 or 7 days of incubation for total or naive/memory CD4^+ T-cell polarizations, respectively. Cytokine concentrations were quantified by ELISA according to the manufacturer's instructions (eBioscience or BioLegend).
# [2] = system: STAT3 phosphorylation in Ba/F3 cells stably expressing the human IL-21 receptor; assay: IL-21-induced phospho-STAT3 by flow cytometry; format: cell-based; details: 1 μM, 1 h pre-incubation
# Method: To assess whether Cpd A affected STAT3 activity we induced STAT3 phosphorylation in Ba/F3 cells stably expressing the human IL-21 receptor (kindly provided by Dr. Max Warncke, Novartis). Cells were pre-incubated for 1 h with 10 μM of Cpd A or with 1 μM of the pan-JAK inhibitor CP690550. To induce STAT3 activity, the cells were stimulated for 1.5 h with recombinant human IL-21 (3 nM), followed by two washing steps using buffer containing PBS/0.5% BSA. The cells were fixed with 2% paraformaldehyde for 15 min at room temperature, washed and resuspended in ice-cold 90% methanol solution and stored overnight at −20°C. The samples were washed and stained for 1 h with an Alexa 647-labeled anti-phospho (pY705)-STAT3 antibody (BD biosciences). After two washes the cells were analyzed using a LSR Fortessa (BD Bioscience) and analyzed using FlowJo software (Tree Star).
# [3] = molecular target: T1, human RORγt ligand binding domain …; assay: FRET or BRET; TR-FRET in solution: 6 nM His6-tagged RORγt-LBD, 90 nM biotinylated RIP140 co-activator peptide, 0.45 nM Cy5-labeled streptavidin, 1.5 nM Europium-labeled anti-His6 antibody; 1 h incubation; emissions at 615 and 665 nm; displacement by the small molecules Cpd A or SR2211; details: both partners purified
molecule,measurement,setting,value
"Secukinumab: neutralizing IL-17-selective antibody (Cosentyx, Novartis)","NFKBIZ, DEFB4A, CCL20, IL36G gene expression in NHEKs (spike-in)",NHEKs,reduced gene expression
same,IL36G expression in HaCaT after IL-17 neutralization in Th17 supernatants,HaCaT keratinocytes; 0.75 μg/ml,moderate inhibition
same,IL-17A/TNFα-mediated gene expression in HaCaT (spike-in),"HaCaT keratinocytes; 0.75 μg/ml pre-incubation of cytokines, similar to TNFα-induced levels",significantly impaired
same,IL-17 activated transcripts in HaCaT after IL-17 neutralization in Th17 supernatants,"HaCaT keratinocytes; 0.75 μg/ml, to levels seen with Th17 cytokines only",further downregulation
"OC(c1ccc(-c2ccc(CN3CCN(Cc4ccncc4)CC3)cc2)c(F)c1)(C(F)(F)F)C(F)(F)F [SR2211, reference compound]",IC50,[1],257 ± 181 nM
same,IC50,total human CD4+ T-cells,1480 ± 739 nM
"C[C@@H]1CCN(C(=O)CC#N)C[C@@H]1N(C)c1ncnc2[nH]ccc12 [CP690550, reference compound]",IL-21-induced STAT3 activity (pY705-STAT3),[2],blocked
"{Biotin-Ahx}-NSHQKVTLLQLLLGHKNEEN-NH2 (SMILES CC(C)C[C@H](NC(=O)[C@H](CC(C)C)NC(=O)[C@H](CC(C)C)NC(=O)[C@H](CCC(N)=O)NC(=O)[C@H](CC(C)C)NC(=O)[C@H](CC(C)C)NC(=O)[C@@H](NC(=O)[C@@H](NC(=O)[C@H](CCCCN)NC(=O)[C@H](CCC(N)=O)NC(=O)[C@H](Cc1c[nH]cn1)NC(=O)[C@H](CO)NC(=O)[C@H](CC(N)=O)NC(=O)CCCCCNC(=O)CCCC[C@@H]1SC[C@@H]2NC(=O)N[C@@H]21)C(C)C)[C@@H](C)O)C(=O)NCC(=O)N[C@@H](Cc1c[nH]cn1)C(=O)N[C@@H](CCCCN)C(=O)N[C@@H](CC(N)=O)C(=O)N[C@@H](CCC(=O)O)C(=O)N[C@@H](CCC(=O)O)C(=O)N[C@@H](CC(N)=O)C(N)=O, also called RIP140 peptide; source: bought: Thermo Scientific) [biotinylated RIP140 derived co-activator peptide]",binding result,[3],binds
